From US10882869B2, “Condensed heterocyclic compounds and pesticides” (NISSAN CHEMICAL CORPORATION, priority 2015, dated 2021)

How the values were obtained:
Assay type in all cases: in vivo
[1] = test system: Plutella xylostella; experiment: Insecticidal test on Plutella xylostella (cabbage leaves soaked); conditions: 144 h, 500 ppm solution, 3rd-instar larvae, 6 days after, 25° C.
Procedure: (§1) Leaves of cabbage were soaked in the solutions for about 10 seconds. After the soaking, the leaves were dried in air and placed in dishes. In each dish, five 3rd-instar larvae of Plutella xylostella were released, and the dishes were covered with lids and placed in an incubator at 25° C. 6 Days after, dead insects in the dishes were counted, and the mortality was calculated by using the same equation as in Test Example 1. The test was carried out in duplicate.

[2] = test system: Spodoptera litura; experiment: Insecticidal test on Spodoptera litura (cabbage leaves soaked); conditions: 144 h, 500 ppm solution, 3rd-instar larvae, 6 days after, 25° C.
Procedure: as §1, with “Spodoptera litura” for “Plutella xylostella”

[3] = test system: Frankliniella occidentalis; experiment: Insecticidal activity on Frankliniella occidentalis (kidney bean leaf spray); conditions: 48 h, 500 ppm solution sprayed (2.5 mg/cm^2), larvae on kidney bean leaves, 2 days after
Procedure: In styrol cups having an inner diameter of 7 cm, wet filter paper was laid, kidney bean leaves cut into a 3 cm square were laid on the paper, and each leaf was inoculated with 20 larvae of Frankliniella occidentalis. […] 2.5 ml of the solutions were sprayed from a rotary spray tower into the styrol cups (2.5 mg/cm^2).
2 Days after, dead insects were counted, and insect damage on kidney bean leaves was examined. The mortality was calculated by using the same equation as in Test Example 1.
The insect damage degree was evaluated as follows. 1: 0 to 20% insect damage, 2: 20 to 50% insect damage, 3: 50 to 70% insect damage, and 4: 70% or higher insect damge. The test was carried out in duplicate.

[4] = test system: Myzus persicae; experiment: Insecticidal test on Myzus persicae (cabbage leaf spray); conditions: 144 h, 500 ppm solution sprayed (2.5 mg/cm^2), apterous adults on cabbage leaves, 6 days after, 25° C.
Procedure: Wet absorbent cotton was laid on glass dishes having an inner diameter of 3 cm, and covered with leaves of cabbage cut into circles of the same diameter, and 4 apterous adults of Myzus persicae were released. […] The solutions were sprayed from a rotary spray tower (2.5 mg/cm^2), and the dishes were covered with lids and placed in an incubator at 25° C. 6 Days after, dead insects were counted, and the mortality was calculated by using the same equation as in Test Example 1. The test was carried out in duplicate.

[5] = test system: Ctenocephalides felis; experiment: Test on the effect on Ctenocephalides felis (thin film in glass container); conditions: 96 h, application dose 10 μg/cm^2, adults, 4 days after release, 25° C.
Procedure: (§2) 350 μl of the solutions were applied to the bottoms and the side walls of glass containers with an inner wall surface area of 35 cm^2, and acetone was volatilized to prepare thin films of the compounds on the inner walls of the glass containers. Since the inner wall surface area of each glass container was 35 cm^2, the application dose was 10 μg/cm^2.
(§3) To each glass container, five adults (male and female) of Ctenocephalides felis were released, and the containers were covered with lids and placed in an incubator at 25° C. 4 Days after the release of the fleas, dead fleas were counted, and the mortality was calculated by using the same equation as in Test Example 1.

[6] = test system: Rhipicephalus sanguineus; experiment: Test on the effect on Rhipicephalus sanguineus (thin film in glass container); conditions: 96 h, application dose 10 μg/cm^2, protonymphs, 4 days after release, 25° C.
Procedure: as §2
as §3, with “protonymphs” for “adults”, “Rhipiceohalus sanguineus” for “Ctenocephalides felis”, “ticks,” for “fleas,”, “ticks” for “fleas”

[7] = test system: Plutella xylostella; experiment: Soil irrigation test on Plutella xylostella; conditions: 144 h, 500 ppm solution, 10 ml soil irrigation of cabbage seedlings, leaves picked 5 days after, 3rd-instar larvae, 6 days after
Procedure: The soil around the bases of cabbage seedlings (at the 2.5-leaf stage) planted in plastic cups was irrigated with 10 ml of the solutions. After the irrigation, the cabbage seedlings were placed in a greenhouse. 5 Days after the irrigation, leaves of cabbage were picked and placed in dishes. In each dish, five 3rd-instar larvae of Plutella xylostella were released, and the dishes were covered with lids and placed in an incubator at 25° C. 6 Days after, dead insects in the dishes were counted, and the mortality was calculated by using the same equation as in Test Example 1. The test was carried out in duplicate.

[8] = test system: Nilaparvata lugens; experiment: Insecticidal test on Nilaparvata lugens (rice sheaths soaked); conditions: 144 h, 500 ppm solution, 3rd-instar larvae, 6 days after, 25° C.
Procedure: Rice sheaths were soaked in the solutions for about 10 seconds. After the soaking, the rice sheaths were dried in air and put in test tubes. In each tube, five 3rd-instar larvae of Nilaparvata lugens were released, and the tubes were capped with sponge and placed in an incubator at 25° C. 6 Days after, dead insects in the test tubes were counted, and the mortality (%) (the number of dead insects÷the number of released insects×100) was calculated. The test was carried out in duplicate.

[9] = test system: Nilaparvata lugens; experiment: Systemic insecticidal test on Nilaparvata lugens (rice seedling root dip); conditions: 20 ppm solution, rice seedling roots dipped 7 days, 3rd-instar larvae, 6 days after release, 25° C.
Procedure: 7 Days after, the rice seedlings were picked and put in test tubes, and in each tube, five 3rd-instar larvae of Nilaparvata lugens were released, and the tubes were capped with sponge and placed in an incubator at 25° C. 6 Days after the release of the insects, dead insects were counted, and the mortality (%) (the number of dead insects÷the number of released insects×100) was calculated. The test was carried out in duplicate.

Compound `CCSc1c(-c2nc3cc(C(F)(F)F)cnc3n2C)nc2cc(C(F)(F)F)ccn12` [1-1-002b, 2-[3-(ethylthio)-7-(trifluoromethyl)imidazo[1,2-a]pyridin-2-yl]-3-methyl-6-(trifluoromethyl)-3H-imidazo[4,5-b]pyridine] has a mortality at 500 ppm [1] of at least 90%, a mortality at 500 ppm [2] of at least 90% and a mortality at 500 ppm [3] of at least 50%. It also gave a mortality at 500 ppm [4] of at least 90% and a mortality at 10 µg/cm2 [5] of at least 50%.
Work on `CCSc1c(-c2nc3cc(SC(F)(F)F)cnc3n2C)nc2cc(C(F)(F)F)ccn12` [1-1-027b, 2-[3-(ethylthio)-7-(trifluoromethyl)imidazo[1,2-a]pyridin-2-yl]-3-methyl-6-((trifluoromethyl)thio)-3H-imidazo[4,5-b]pyridine] yielded a mortality at 500 ppm [1] of at least 90%, a mortality at 500 ppm [2] of at least 90% and a mortality at 10 µg/cm2 [6] of at least 50%. It also gave a mortality at 10 µg/cm2 [5] of at least 50%.
`CCS(=O)(=O)c1c(-c2nc3cc(C(F)(F)F)cnc3n2C)nc2cnc(C(F)(F)F)cn12` [1-1-029a, 2-[3-(ethylsulfonyl)-6-(trifluoromethyl)imidazo[1,2-a]pyrazin-2-yl]-3-methyl-6-(trifluoromethyl)-3H-imidazo[4,5-b]pyridine] gave a mortality at 500 ppm [1] of at least 90%, a mortality at 500 ppm [2] of at least 90% and a pest or weed control at 500 ppm [7] of at least 90%. The mortality at 10 µg/cm2 [5] was at least 50%.
Compound `CCSc1c(-c2nc3cc(C(F)(F)F)cnc3n2C)nc2ncc(C(F)(F)F)cn12` [1-1-054b, 2-[3-(ethylthio)-6-(trifluoromethyl)imidazo[1,2-a]pyrimidin-2-yl]-3-methyl-6-(trifluoromethyl)-3H-imidazo[4,5-b]pyridine] has a mortality at 500 ppm [3] of at least 50% and a mortality at 10 µg/cm2 [5] of at least 50%.
`CCS(=O)(=O)c1c(-c2nc3cc(C(F)(F)F)cnc3n2C)nc2cc(C(F)(F)F)ncn12` [1-1-055a, 2-[3-(ethylsulfonyl)-7-(trifluoromethyl)imidazo[1,2-c]pyrimidin-2-yl]-3-methyl-6-(trifluoromethyl)-3H-imidazo[4,5-b]pyridine] showed a mortality at 500 ppm [1] of at least 90%, a mortality at 10 µg/cm2 [6] of at least 50% and a mortality at 10 µg/cm2 [5] of at least 50%.
Compound `CCSc1c(-c2nc3cc(C(F)(F)F)cnc3n2C)nc2cc(C(F)(F)F)ncn12` [1-1-055b, 2-[3-(ethylthio)-7-(trifluoromethyl)imidazo[1,2-c]pyrimidin-2-yl]-3-methyl-6-(trifluoromethyl)-3H-imidazo[4,5-b]pyridine] has a mortality at 500 ppm [3] of at least 50%.
`CCS(=O)(=O)c1c(-c2cn3c(C)nc(C(F)(F)C(F)(F)F)cc3n2)nc2ccc(C(F)(F)F)cn12` [1-3-007a, 2-[3-(ethylsulfonyl)-6-(trifluoromethyl)imidazo[1,2-a]pyridin-2-yl]-5-methyl-7-(perfluoroethyl)imidazo[1,2-c]pyrimidine] showed a mortality at 500 ppm [8] of at least 90%, a mortality at 500 ppm [1] of at least 90% and a mortality at 500 ppm [2] of at least 90%. For the same compound, the mortality at 500 ppm [4] was at least 90%, the mortality at 20 ppm [9] was at least 90% and the mortality at 10 µg/cm2 [5] was at least 50%.
`CCS(=O)(=O)c1c(-c2cn3ncc(C(F)(F)F)cc3n2)nc2cc(C(F)(F)F)ccn12` [1-4-001a, 2-[3-(ethylsulfonyl)-7-(trifluoromethyl)imidazo[1,2-a]pyridin-2-yl]-7-(trifluoromethyl)imidazo[1,2-b]pyridazine] was tested, and the mortality at 500 ppm [1] was at least 90%, the mortality at 500 ppm [2] was at least 90% and the mortality at 500 ppm [4] was at least 90%. For the same compound, the pest or weed control at 500 ppm [7] was at least 90% and the mortality at 10 µg/cm2 [5] was at least 50%.
In the case of `CCS(=O)(=O)c1c(-c2nc3cc(C(F)(F)F)nc(C)c3n2C)nc2ccc(C(F)(F)F)cn12` [1-8-003a, 2-[3-(ethylsulfonyl)-6-(trifluoromethyl)imidazo[1,2-a]pyridin-2-yl]-3,4-dimethyl-6-(trifluoromethyl)-3H-imidazo[4,5-c]pyridine], the mortality at 500 ppm [2] is reported as at least 90%, the pest or weed control at 500 ppm [7] is reported as at least 90% and the mortality at 10 µg/cm2 [5] is reported as at least 50%.
Compound `CCSc1c(-c2nc3cc(C(F)(F)F)ncc3n2C)nc2cc(Cl)ccn12` [1-8-006b, 2-[7-chloro-3-(ethylthio)imidazo[1,2-a]pyridin-2-yl]-3-methyl-6-(trifluoromethyl)-3H-imidazo[4,5-c]pyridine] has a mortality at 500 ppm [1] of at least 90%, a mortality at 500 ppm [2] of at least 90% and a mortality at 10 µg/cm2 [6] of at least 50%. The mortality at 10 µg/cm2 [5] was at least 50%.
For `CCS(=O)(=O)c1c(-n2cc3ncc(C(F)(F)F)cc3n2)nc2cc(C(F)(F)F)ccn12` [1-10-002a, 2-[3-(ethylsulfonyl)-7-(trifluoromethyl)imidazo[1,2-a]pyridin-2-yl]-6-(trifluoromethyl)-2H-pyrazolo[4,3-b]pyridine], the mortality at 500 ppm [1] was at least 90%, the mortality at 500 ppm [2] was at least 90% and the mortality at 500 ppm [4] was at least 90%. The pest or weed control at 500 ppm [7] was at least 90% and the mortality at 10 µg/cm2 [5] was at least 50%.
Work on `CCS(=O)(=O)c1c(-n2cc3cnc(C(F)(F)F)cc3n2)nc2cc(C(F)(F)F)ccn12` [1-11-001a, 2-[3-(ethylsulfonyl)-7-(trifluoromethyl)imidazo[1,2-a]pyridin-2-yl]-6-(trifluoromethyl)-2H-pyrazolo[4,3-c]pyridine] yielded a mortality at 500 ppm [8] of at least 90%, a mortality at 500 ppm [1] of at least 90% and a mortality at 500 ppm [2] of at least 90%. For the same compound, the mortality at 500 ppm [4] was at least 90%, the mortality at 20 ppm [9] was at least 90% and the pest or weed control at 500 ppm [7] was at least 90%. For the same compound, the mortality at 10 µg/cm2 [5] was at least 50%.
With `CCS(=O)(=O)c1c(-c2nc3cc(C(F)(F)F)cnc3n2C)nc2sc(C(F)(F)F)nn12` [2-1-002a, 5-(ethylsulfonyl)-6-[3-methyl-6-(trifluoromethyl)-3H-imidazo[4,5-b]pyridin-2-yl]-2-(trifluoromethyl)imidazo[2,1-b][1,3,4]thiadiazole] the mortality at 500 ppm [1] was at least 90%, the mortality at 500 ppm [3] was at least 50% and the mortality at 500 ppm [4] was at least 90%. For the same compound, the mortality at 20 ppm [9] was at least 90% and the pest or weed control at 500 ppm [7] was at least 90%.
`CCS(=O)(=O)c1c(-c2nc3cc(C(F)(F)F)cnc3n2C)n(C)c2ccc(C(F)(F)F)cc12` [3-1-001a, 2-[3-(ethylsulfonyl)-1-methyl-5-(trifluoromethyl)-1H-indol-2-yl]-3-methyl-6-(trifluoromethyl)-3H-imidazo[4,5-b]pyridine] was tested, and the mortality at 500 ppm [1] was at least 90%, the mortality at 500 ppm [2] was at least 90% and the mortality at 500 ppm [3] was at least 50%. For the same compound, the mortality at 500 ppm [4] was at least 90% and the mortality at 10 µg/cm2 [5] was at least 50%.
Compound `CCSc1c(-c2nc3cc(C(F)(F)F)cnc3n2C)n(C)c2ccc(C(F)(F)F)cc12` [3-1-001b, 2-[3-(ethylthio)-1-methyl-5-(trifluoromethyl)-1H-indol-2-yl]-3-methyl-6-(trifluoromethyl)-3H-imidazo[4,5-b]pyridine] has a mortality at 500 ppm [1] of at least 90%, a mortality at 500 ppm [3] of at least 50% and a mortality at 10 µg/cm2 [5] of at least 50%.
